Laboratory results as given in patent US20220213070A1, “COMPOUNDS INHIBITING TDG ACTIVITY” (EPITAS BIOSCIENCES (SHANGHAI) CO., LTD., priority 2019, published 2022).
pIC50: −log10 of the molar value.

Legend:
[1] = biological target: T1, TDG (Homo sapiens, UniProt Q13569); test: Inhibition of TDG mismatch repair activity (fluorescent G·U double-stranded DNA probe T1-T2); assay type: biochemical; settings: TDG 100 nM/L, preincubated with compound 37° C. 30 minutes; probe 30 nM; read-out: Inhibitory activity on TDG mismatch repair IC50
T1 sequence (Q13569 whole entry): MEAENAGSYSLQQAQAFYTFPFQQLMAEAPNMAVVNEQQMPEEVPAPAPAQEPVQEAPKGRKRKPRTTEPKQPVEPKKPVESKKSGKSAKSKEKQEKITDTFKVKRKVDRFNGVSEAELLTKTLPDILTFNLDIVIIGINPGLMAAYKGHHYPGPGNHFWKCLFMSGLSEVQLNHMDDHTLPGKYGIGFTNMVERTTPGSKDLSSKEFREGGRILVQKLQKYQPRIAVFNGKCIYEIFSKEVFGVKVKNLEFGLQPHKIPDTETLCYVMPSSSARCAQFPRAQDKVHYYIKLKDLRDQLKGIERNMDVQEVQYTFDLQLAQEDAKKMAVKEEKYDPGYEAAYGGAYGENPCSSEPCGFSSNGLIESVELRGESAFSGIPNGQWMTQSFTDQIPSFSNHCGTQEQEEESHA
Outline: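 TDG (100 nM/L) preincubated with compound 30 min at 37 °C in 20 mM HEPES pH7.5, 100 mM NaCl, 0.2 mM EDTA, 2.5 mM MgCl2, then 30 nM FAM/biotin G·U probe for 30 min at 25 °C. After streptavidin bead capture and 200 mM NaOH, supernatant fluorescence read at 485/520 nm; IC50 determined.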

[2] = tested on: Lung cancer cell line Calu-1; test: Inhibition of the growth of Calu-1 cells (CellTiter-Glo, 72 hours); assay type: cell-based; settings: Homo sapiens, 72 hours of culturing, read-out: Inhibitory activity on alu-1 cell growth IC50
Outline: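 Calu-1 cells in McCoy's 5A with 10% FBS, seeded at 500 cells/well and dosed the next day at 0.1% DMSO final. Viability was read by CellTiter-Glo 2.0 luminescence after 72 h at 37° C. Activity class: ++ for IC50 ≤5 μM, + for IC50 >5 μM.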

[3] = biological target: T1, TDG; test: TDG inhibitory activity of compounds in cells (caC-cmv-firefly luciferase reporter, HEK 293T TDG KO cells transfected with pCDNA4-TDG); assay type: cell-based; settings: read-out: Inhibition rate on TDG activity
Outline: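 TDG-knockout HEK 293T cells co-transfected with an in vitro Tet1-oxidised, 5caC-modified CMV-firefly reporter, a Renilla control and a TDG (or empty myc) plasmid, then treated with compounds for 72 h at 37°C. Firefly/Renilla ratio gives relative TDG activity inhibition, with activity bins set at 10 μM.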

Structure (SMILES)	pIC50 [1]	pIC50 [2]	inhibition at 10 µM [3] [%]
O=C(CCN1CCC(c2ccc(F)c(O)c2)C1)c1ccc2c(c1)OCCO2 (stereo not drawn) [Compound 52, 1-(2,3-dihydrobenzo[b][1,4]dioxin-6-yl)-3-(3-(4-fluoro-3-hydroxyphenyl)pyrrolidine-1-yl)propan-1-one]	≥ 5.30	≥ 5.30	< 25
O=C(CCN1CCc2ccccc2C(O)(c2ccc(F)cc2)C1)c1ccc2c(c1)OCCO2 (stereo not drawn) [Compound 53, 1-(2,3-dihydrobenzo[b][1,4]dioxin-6-yl)-3-(1-(4-fluorophenyl)-1-hydroxy-1,2,4,5-tetrahydro-3H-benzo[d]azepine-3-yl)propan-1-one]	≥ 5.30	≥ 5.30	< 25
O=C(CCN1CCc2ccccc2C(O)(c2ccc(F)cc2)C1)c1ccc2c(c1)C(=O)CCO2 (stereo not drawn) [Compound 54, 6-(3-(1-(4-fluorophenyl)-1-hydroxy-1,2,4,5-tetrahydro-3H-benzo[d]azepine-3-yl)propionyl)chroman-4-one]	≥ 5.30	≥ 5.30	< 25
